Numbering of substitutions follows the chain as printed. ≈ marks a conversion by molar mass, not a printed value.
Tests used:
H-PGDS = H-PGDS (Homo sapiens, UniProt O60760); experiment: H-PGDS enzyme activity assay; assay type: biochemical; settings: AT-56 up to 250 μM
COX-1 = COX-1 (Homo sapiens, UniProt P23219); experiment: COX-1 enzyme activity assay; assay type: biochemical; settings: AT-56 up to 250 μM
COX-2 = molecular target: T1, COX-2 (Homo sapiens, UniProt P35354); experiment: COX-2 enzyme activity assay; assay type: biochemical; settings: AT-56 up to 250 μM
T1 sequence (P35354 18-604): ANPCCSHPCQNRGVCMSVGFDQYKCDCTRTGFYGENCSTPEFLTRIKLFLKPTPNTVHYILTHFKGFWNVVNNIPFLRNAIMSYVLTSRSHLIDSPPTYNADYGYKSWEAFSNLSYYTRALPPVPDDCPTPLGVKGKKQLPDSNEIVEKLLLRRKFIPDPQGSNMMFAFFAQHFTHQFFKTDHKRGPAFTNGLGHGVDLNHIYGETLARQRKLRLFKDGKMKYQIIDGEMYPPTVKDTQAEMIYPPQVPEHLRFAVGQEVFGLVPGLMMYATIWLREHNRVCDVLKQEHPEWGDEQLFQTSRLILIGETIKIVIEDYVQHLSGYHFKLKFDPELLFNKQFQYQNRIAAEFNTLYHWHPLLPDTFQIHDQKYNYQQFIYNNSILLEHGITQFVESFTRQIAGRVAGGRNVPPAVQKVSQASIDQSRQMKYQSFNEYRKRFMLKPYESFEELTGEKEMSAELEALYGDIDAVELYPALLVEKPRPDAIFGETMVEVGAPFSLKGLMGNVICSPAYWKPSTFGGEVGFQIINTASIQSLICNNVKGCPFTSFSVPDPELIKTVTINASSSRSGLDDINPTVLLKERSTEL

m-PGES-1 = molecular target: T2, m-PGES-1 (Homo sapiens, UniProt O14684); experiment: m-PGES-1 enzyme activity assay; assay type: biochemical; settings: AT-56 up to 250 μM
T2 sequence (O14684 1-152): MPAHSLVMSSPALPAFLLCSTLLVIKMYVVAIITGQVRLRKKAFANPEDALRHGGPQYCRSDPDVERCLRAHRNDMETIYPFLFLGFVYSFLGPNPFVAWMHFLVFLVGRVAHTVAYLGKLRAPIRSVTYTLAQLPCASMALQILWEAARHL

[1] = molecular target: T3, C89A/C186A mutant of mouse L-PGDS (Mus musculus, UniProt O09114, C186A/C89A); experiment: Intrinsic tryptophan fluorescence quenching assay, C89A/C186A mutant; assay type: binding
T3 sequence (O09114 23-189 C89A/C186A): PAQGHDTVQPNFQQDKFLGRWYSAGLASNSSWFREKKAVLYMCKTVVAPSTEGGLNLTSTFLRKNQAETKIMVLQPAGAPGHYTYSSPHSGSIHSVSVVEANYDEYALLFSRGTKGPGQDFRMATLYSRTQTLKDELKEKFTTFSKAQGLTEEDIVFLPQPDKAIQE

[2] = molecular target: T4, W54A/C89A/C186A mutant of mouse L-PGDS (Mus musculus, UniProt O09114, C186A/C89A/W54A); experiment: Intrinsic tryptophan fluorescence quenching assay, W54A/C89A/C186A mutant; assay type: binding
T4 sequence (O09114 23-189 W54A/C89A/C186A): T3 sequence (O09114 23-189 C89A/C186A) with W32A

[3] = system: L-PGDS-expressing human medulloblastoma TE-671 cells; experiment: PG production by A23187-stimulated TE-671 cells; assay type: cell-based
[4] = system: H-PGDS-expressing human megakaryoblastic MEG-01S cells; experiment: PGD2 production by A23187-stimulated MEG-01S cells; assay type: cell-based
human L-PGDS TG mice = experiment: L-PGDS-mediated allergic airway inflammation; assay type: in vivo
[5] = Pharmacokinetics of AT-56 in plasma; assay type: in vivo, C57BL/6 mice; settings: male, C57BL/6, mouse; for Tmax: mice
[6] = Maximum solubility in aqueous solution; assay type: physicochemical
[7] = Acute toxicity after oral administration; assay type: in vivo; settings: dose of 100 mg/kg
[8] = molecular target: T5, recombinant mouse L-PGDS C89A/C186A mutant (Mus musculus, UniProt O09114, C186A/C89A); experiment: biochemical
T5 sequence (O09114 23-189 C89A/C186A): T3 sequence (O09114 23-189 C89A/C186A)

brain of H-PGDS KO mice = experiment: PG production by stab wound brain injury
[9] = 0 to 30 μM AT-56, 5 μM A23187, enzyme immunoassay

Sequence of COX-1 (P23219 24-599): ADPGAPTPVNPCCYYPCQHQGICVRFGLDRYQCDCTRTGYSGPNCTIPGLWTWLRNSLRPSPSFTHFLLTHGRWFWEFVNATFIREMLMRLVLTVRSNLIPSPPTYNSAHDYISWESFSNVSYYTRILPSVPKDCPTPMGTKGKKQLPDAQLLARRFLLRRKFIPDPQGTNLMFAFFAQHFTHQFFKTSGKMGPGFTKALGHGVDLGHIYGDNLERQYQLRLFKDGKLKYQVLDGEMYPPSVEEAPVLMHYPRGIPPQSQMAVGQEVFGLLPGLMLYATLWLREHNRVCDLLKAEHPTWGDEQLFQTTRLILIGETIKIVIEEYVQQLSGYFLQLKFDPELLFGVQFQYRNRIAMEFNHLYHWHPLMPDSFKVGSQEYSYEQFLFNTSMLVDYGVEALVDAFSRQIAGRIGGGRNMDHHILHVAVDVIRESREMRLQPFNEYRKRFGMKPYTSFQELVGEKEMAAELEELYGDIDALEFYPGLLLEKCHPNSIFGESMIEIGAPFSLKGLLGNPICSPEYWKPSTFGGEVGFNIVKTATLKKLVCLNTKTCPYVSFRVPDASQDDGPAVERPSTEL
Sequence of H-PGDS (O60760 whole entry, species assumed): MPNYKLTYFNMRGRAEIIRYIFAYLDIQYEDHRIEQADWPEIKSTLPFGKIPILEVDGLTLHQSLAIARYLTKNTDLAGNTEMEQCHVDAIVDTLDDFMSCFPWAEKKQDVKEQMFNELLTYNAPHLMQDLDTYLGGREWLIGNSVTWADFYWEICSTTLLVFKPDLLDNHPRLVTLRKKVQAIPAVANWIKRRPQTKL

C1=Cc2ccccc2C(=C2CCN(CCCCc3nn[nH]n3)CC2)c2ccccc21 [AT-56, 4-dibenzo[a,d]cyclohepten-5-ylidene-1-[4-(2H-tetrazol-5-yl)-butyl]-piperidine]
effect on H-PGDS activity (H-PGDS): not significantly affected | effect on COX-1 activity (COX-1): not significantly affected | effect on COX-2 activity (COX-2): not significantly affected | effect on m-PGES-1 activity (m-PGES-1): not significantly affected | effect on binding of 13-cis-retinoic acid to L-PGDS ([1]; 10 μM AT-56): did not inhibit the binding | tryptophan fluorescence intensity decreased to ([1]; 10 μM AT-56): about 60% | fluorescence quenching ([2]; 10 μM AT-56): did not show the fluorescence quenching | effect on PGE2 production [3, 9]: without affecting | effect on PGF2α production [3, 9]: without affecting | PGD2 biosynthesis ([3]; 10 μM AT-56, A23187): only a base level | arachidonic acid release ([3]; 10 μM AT-56, A23187): without changing | IC50 ([3]; Homo sapiens, TE-671, read-out: IC50, PGD2 production): ~3 µM | production of other 14C-labeled metabolites ([3]; [1-14C]arachidonic acid-prelabeled cells, AT-56 up to 100 μM): not inhibited | effect on PGD2 production [4]: no effect | total cells in BALF, actual number (human L-PGDS TG mice; 1 mg/kg AT-56 p.o.): 8.7 ± 1.9 × 10^4 cells/ml | total cells in BALF, actual number (human L-PGDS TG mice; 10 mg/kg AT-56 p.o.): 2.7 ± 0.4 × 10^4 cells/ml | AUC ([5]; iv, 2 mg/kg): 1280 ng·h/mL | C0 ([5]; iv, 2 mg/kg): 860 ng/mL | half-life ([5]; iv, 2 mg/kg): 2.35 h | Tmax ([5]; iv, 2 mg/kg): 0.08 h | AUC ([5]; po, 10 mg/kg): 8950 ng·h/mL | Cmax ([5]; po, 10 mg/kg): 2150 ng/mL | bioavailability ([5]; po, 10 mg/kg): 82% | concentration at 12 h ([5]; po, 10 mg/kg): < 0.4 ng/mL | half-life ([5]; po, 10 mg/kg): 1.71 h | Tmax ([5]; po, 10 mg/kg, per os): 0.5 h | solubility ([6]; 10% DMSO): 260 µM (≈ 103 µg/mL) | solubility ([6]; saline containing 1% DMSO): 90 µM (≈ 35.8 µg/mL) | acute toxic effects [7]: did not detect any acute toxic effects | IC50 [8]: 95 µM | Ki [8]: 75 µM | total amount of PGD2 in the brain decreased to (brain of H-PGDS KO mice; 30 mg/kg AT-56 orally 1 h before the injury): 40% | amount of PGE2 in the brain (brain of H-PGDS KO mice; AT-56 orally 1–30 mg/kg): not significantly changed | amount of PGF2α in the brain (brain of H-PGDS KO mice; AT-56 orally 1–30 mg/kg): not significantly changed

c1ccc(C(OC2CCN(CCCc3nnn[nH]3)CC2)c2ccccc2)cc1 [HQL-79, 4-benzhydryloxy-1-(3-(1H-tetrazol-5-yl)-propyl)-piperidine, reference compound]
effect on PGD2 production ([3]; TE-671 cells): but not from TE-671 cells | effect on PGD2 production [4]: inhibited PGD2 production

CC1=C(/C=C/C(C)=C/C=C/C(C)=C\C(=O)O)C(C)(C)CCC1 [13-cis-retinoic acid, reference compound]
tryptophan fluorescence intensity decreased to ([1]; 10 μM 13-cis-retinoic acid, absence of AT-56): about 8% | tryptophan fluorescence intensity decreased to ([1]; 10 μM 13-cis-retinoic acid, in the presence of 10 μM AT-56): < 10% | tryptophan fluorescence intensity decreased to ([2]; 10 μM 13-cis-retinoic acid): < 10%

From PMC2658056 (The Journal of Biological Chemistry, 2009)
